The text below walks through data of BindingDB's records for patent US20250059185 (Hoffmann-La Roche, 2025).

The target of the assay is T1, Monoglyceride lipase (Homo sapiens, UniProt Q99685).
T1 sequence (Q99685 whole entry): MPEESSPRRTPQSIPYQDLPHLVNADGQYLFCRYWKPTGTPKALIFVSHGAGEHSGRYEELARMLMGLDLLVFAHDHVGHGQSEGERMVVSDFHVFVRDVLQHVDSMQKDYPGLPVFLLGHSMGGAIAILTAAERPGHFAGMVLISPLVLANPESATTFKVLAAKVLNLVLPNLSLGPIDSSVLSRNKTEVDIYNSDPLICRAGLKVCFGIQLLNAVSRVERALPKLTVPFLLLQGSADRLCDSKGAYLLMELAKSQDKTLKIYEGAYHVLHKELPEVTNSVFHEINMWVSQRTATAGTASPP
Kind of assay: MAGL Inhibitory Activity Assay. The protocol: MAGL inhibitory activity by determining the enzymatic activity by following the hydrolysis of the natural substrate 2-arachidonoylglycerol (2-AG) resulting in arachidonic acid, which can be followed by mass spectrometry. This assay is hereinafter abbreviated “2-AG assay”. The 2-AG assay was carried out in 384 well polypropylene assay plates. Compound dilutions were made in 100% DMSO in a polypropylene plate in 3-fold dilution steps to give a final concentration range in the assay from 12.5 μM to 0.8 pM. Compound dilutions were added to MAGL protein in assay buffer (50 mM TRIS, 1 mM EDTA, 0.01% (v/v) Tween-20, 2.5% (v/v) DMSO). After shaking, the plate was incubated for 15 min at RT. To start the reaction, 2-arachidonoylglycerol in assay buffer was added. The final concentrations in the assay was 50 pM for MAGL protein and […] 2-arachidonoylglyerol. After shaking and 30 min incubation at RT, the reaction was quenched by the addition of two assay volumes of acetonitrile containing 4 μM of d8-arachidonic acid. The amount of arachidonic acid formed was traced by an online SPE system (Agilent Rapidfire) coupled to a triple quadrupole mass spectrometer.

The term IC50 denotes the point on the concentration scale where inhibition reaches its midpoint. Read a low IC50 as greater potency. `COc1cccc(C(=O)N2CCc3c(nn(C)c3-c3cc(Cl)cc(CC(N)=O)c3)[C@H]2C)c1Cl` [US20250059185, Example 15]: the IC50 is 152 nM. In other words, the sub-micromolar range.
